Drawing on a melting point compilation (Tetko et al.; mined from patent text by program, amines drawn as free bases though some values may be those of a salt), this text covers melting point for 35 compounds.

In the case of `Cc1ccc(-c2nnc3cc(-c4ccccc4)c(OCc4ncn(C)n4)nn23)cc1`, the melting point – broadly, the temperature of the solid-liquid transition – fell in the range of 219 to 220 °C.

`CC(C)(C)c1ccc(C=C(SC(=Cc2ccc(C(C)(C)C)cc2)S(=O)(=O)c2ccccc2)S(=O)(=O)c2ccccc2)cc1` showed a melting point of 57 to 58 °C.

Take `O=c1[nH]c2ncc(-c3ccc(-n4ccnc4)cc3)nc2n1CC1CCCCC1`: the melting point lay within 284 to 287 °C.

As for `CC(OC(=O)C(F)(F)F)C1CCC2C3CC=C4CC(NC(=O)C(F)(F)F)CCC4(C)C3CCC12C` (stereo not given), the melting point stood at 140 °C.

As for `CC=CC(=O)Nc1cccc(OC(=O)Nc2ccc(Cl)c(Cl)c2)c1`, the melting point was in the range of 193 to 194 °C.

`Cc1cc(=O)c2[nH]nc(C)c2[nH]1` gave a melting point of more than 346 °C.

In the case of `CCCCOC(=O)[C@H]1CN(c2ccc(N3CCSCC3)cc2)C(=O)O1`, the melting point fell in the range of 95.5 to 98 °C.

Turning to `CC1Nc2ccccc2NC1=S` (stereo not given), the melting point was 92 to 94 °C.

As for `Cc1c(C(C)O)cc(C(C)C)c(-c2ccc(O)cc2)c1Cl` (stereo not given), the melting point is 220 to 222 °C.

`CCOC(=O)c1cn(-c2nc3ccccc3[nH]2)cn1` yielded a melting point of 252 to 253 °C.

`N#Cc1ccc(OS(N)(=O)=O)cc1`: the melting point lay within 154 to 156 °C.

For `CCC(CC)c1ccc(N(Cc2ccc(-c3csc(COc4cncc(C(=O)O)c4)n3)cc2)C(C)C)cc1`, the melting point is 202 °C.

The compound `CC(C)[C@H](OCc1ccccc1)[C@H]1[C@H]([N+](=O)[O-])[C@H](C(C)(C)C)N[C@@H]1C(=O)NCC(=O)O` gave a melting point of 119 to 120 °C.

`CCCCCCc1cc2c(s1)NC(=O)CN=C2c1ccccc1OC` registered a melting point of 130 to 132 °C.

Consider `COc1ccc(-c2[nH]nc3c2C(=O)c2c(NC(=O)Cc4ccc(Cl)c(Cl)c4)cccc2-3)cc1`, for which the melting point turned out to be 299 °C.

In the case of `COC(=O)C(C)N(C(=O)CCl)c1c(C)cccc1Cl` (stereo not given), the melting point was 75 to 78 °C.

The compound `CC1(C)CC(=O)NC2CCCCC2N1CCO` (stereo not given) registered a melting point of 154 to 156 °C.

Compound `Clc1ccc(-c2onc3c(CBr)cc(Cl)cc23)cc1` came in with a melting point of 145 to 147 °C.

`Cc1ccc2c(c1)C1(COc3cc4c(cc31)OCO4)C(=O)N2Cc1ccc(C(F)(F)F)o1` (stereo not given) yielded a melting point of 96 to 98 °C.

Consider `CC(C)(C)ON1C(C)(C)CC(OC(=O)c2ccccc2)CC1(C)C`, for which the melting point fell in the range of 80 to 82.5 °C.

Compound `CC(C)c1nn(-c2ccc(C#N)cn2)cc1CCCO` returned a melting point of 105 to 106 °C.

Regarding `CCOC(=O)Cc1ccc2c(c1)sc1ccccc12`, the melting point is 60 to 62 °C.

On to `C[C@H](Cn1cccn1)n1cnc2cc3c(=O)n([C@H](C)Cn4cc(Cl)cn4)cnc3cc2c1=O`, for which the melting point was 231 to 232 °C.

`NCCc1csc(N)n1` gave a melting point of 69 to 71 °C.

On to `Fc1ccc(C2CC(n3ccnc3)c3ccccc3N2)cc1` (stereo not given), for which the melting point was in the range of 168 to 170 °C.

Compound `NC(=O)c1ccccc1NCCC12CCCN1CCC2` registered a melting point of 145 to 147 °C.

Consider `CC(C)(C)OC(=O)N1C(=O)O[C@@H](c2ccc(F)cc2)[C@H]1Cc1ccc(C(F)(F)F)cc1` (racemic), for which the melting point fell in the range of 155 to 156 °C.

Take `CC[C@H](C)C(OCc1ccccc1F)[C@H]1[C@H]([N+](=O)[O-])[C@H](c2ccccc2)N[C@@H]1C(=O)NCCC(=O)O` (stereo not given in full): the melting point lay within 136 to 138 °C.

`O=C1Nc2ccccc2NC2CCCC12` (stereo not given) returned a melting point of 191 to 212 °C.

Regarding `COC(=O)Cc1ccc(C(=C2CC(C)(C)CC(C)(C)C2)c2ccc(O)cc2)cc1`, the melting point lay within 154 to 155 °C.

For `CCCn1nnn(-c2cc(C)c(Cl)cc2Cl)c1=O`, the melting point fell in the range of 47 to 48 °C.

For `FC(Sc1nnc(-c2ccc(Cl)cc2)s1)=C(F)C(F)(F)F`, the melting point lay in the range of 69 to 70 °C.

`NC(=O)N(O)CCNC(=O)c1cccc(Oc2cc(Cl)cc(Cl)c2)c1` showed a melting point of 164 to 166 °C.

Regarding `COc1ccc(-n2cc(CCC(=O)NS(C)(=O)=O)c(-c3ccc(Cl)c(F)c3)n2)cc1Cl`, the melting point was 211 to 212 °C.

`CC(C)C(NC(=O)OCC1c2ccccc2-c2ccccc21)C(=O)Nc1n[nH]c(=S)s1` (stereo not given) displayed a melting point of 141 to 144 °C.
